Test results as given in US9067974B2, “Polymyxin derivatives and uses thereof” (priority 2006, dated 2015).
Like-named read-outs stand apart in the source and are kept apart here.

Experiments:
E. coli IH3080 (K1:O18) [1] = test: Experimental E. coli peritonitis model in mice; assay type: in vivo; conditions: 5 mg/kg subcutaneous
Description: A suspension of E. coli IH3080 (K1:O18) in saline (0.9% NaCl) was prepared from an overnight culture on a blood agar plate (Statens Serum Institut, Copenhagen, Denmark). All mice (female NMR1 from Harlan Scandinavia, Allerød, Denmark; weight, 25-30 g) were inoculated intraperitoneally with 0.5 ml of the suspension containing 0.96×10^6 CFU per ml in the lateral lower quadrant of the abdomen. At 1 h, the CFU count was determined from three mice and the remaining mice (four mice per group) were treated with a subcutaneous injection of 0.2 ml of erythromycin solution in saline (corresponding to 5 mg/kg body weight) or NAB7061 solution in saline (corresponding to 5 mg/kg body weight), or both erythromycin and NAB7061 (corresponding to 5 mg/kg body weight of both drugs; given at two separate sites). Control group received two 0.2 ml injections of saline. At 4.5 h postinfection, all mice were anaesthetized with CO2 and sacrificed. Sterile saline (2 ml) was injected intraperitoneally and the abdomen was gently massaged before it was opened and the fluid sampled. Appropriate dilutions of the fluid were plated on blood agar plates, the plates were incubated overnight, and the colonies were counted.

Ac. baumannii ATCC19606 = test: E-test MIC of antibiotics on Mueller-Hinton agar with or without NAB7061 (4 μg/ml); sensitization factor = MIC ratio absence/presence; assay type: cell-based; conditions: Acinetobacter baumannii, NAB 7061 0 μg/ml, A. baumannii ATCC19606
Description: (§1) MICs were determined by using E-strips (Biodisk Ltd., Solna, Sweden) according to the manufacturer's instructions.
(§2) The strains originated from ATCC (11 strains), CCUG (11 strains), and NCTC (The National Collection of Type Cultures, Colindale, U.K.; 2 strains). Eight strains (the F-strains) were purchased from Mobidiag Ltd., Helsinki, Finland. The source of E. coli IH3080 has been given in Example 2. Sensitization factor was defined as in Example 7.
(§3) Sensitization factor was defined as in Example 7. NAB7061 sensitized both carbapenem-resistant strains (F263, F264) to both carbapenems by a factor ≧4.

Ac. baumannii F263 = test: as above; assay type: cell-based; conditions: Acinetobacter baumannii, NAB 7061 0 μg/ml, A. baumannii F263
Description: as §1, §2, §3

Ac. baumannii F264 = test: as above; assay type: cell-based; conditions: Acinetobacter baumannii, NAB 7061 0 μg/ml, A. baumannii F264
Description: as §1, §2, §3

E. coli IH3080 (K1:O18) [2] = test: Well diffusion growth inhibition on LB agar plates (direct antibacterial activity); assay type: cell-based, Escherichia coli
How it was run: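 Growth inhibition of encapsulated E. coli IH3080 (K1:O18) was measured by well diffusion on LB agar plates. A suspension of about 10^8 cells/ml in 0.9% NaCl, made from an overnight LB agar culture, was spread over the plates and the excess removed. Once dry, five 2 mm wells were drilled per plate and test solutions added, with 0.9% NaCl as control. After 18 h at 37° C, inhibition zone diameters were measured and converted to surface areas in square mm.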

[3] = tested on: Acinetobacter baumannii ATCC 19606; test: as above; assay type: cell-based; conditions: A. baumannii ATCC 19606
How it was run: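 Direct antibacterial activity against Acinetobacter baumannii ATCC 19606 was measured by agar well diffusion on LB plates. The plates were flooded with a suspension of approx. 10^8 cells/ml in 0.9% NaCl, and the excess was removed. Once the surface dried, five wells of 2 mm diameter were drilled per plate. The wells were filled with test compound dissolved in 0.9% NaCl, with plain 0.9% NaCl as control. After 18 h at 37° C., inhibition zone diameters were measured and converted to growth inhibition areas in square mm.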

[4] = tested on: Pseudomonas aeruginosa ATCC 27853; test: as above; assay type: cell-based; conditions: Ps. aeruginosa ATCC 27853
How it was run: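 Pseudomonas aeruginosa ATCC 27853 was tested for direct antibacterial susceptibility by agar well diffusion. A suspension of about 10^8 cells/ml in 0.9% NaCl was spread over LB agar and the excess removed. After drying, 2 mm wells were drilled and filled with compound dissolved in 0.9% NaCl, with NaCl alone as control. Plates were incubated 18 h at 37° C, and inhibition zone diameters were measured and converted to areas in square mm.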

E. coli IH3080 = test: Sensitization to rifampin: well diffusion growth inhibition on LB plates containing rifampin; assay type: cell-based, Escherichia coli; conditions: 4 μg of compound
[5] = target: brush-border membrane (BBM) from the renal cortex; test: Inhibition of [3H] gentamycin binding to brush-border membrane vesicles; parameters: species or system rats; conditions: 20 μM [3H] gentamycin; 60 min at 4° C.; rat renal cortex BBM vesicles
Excerpt: The binding of the compounds according to this invention to isolated brush-border membrane (BBM) from the renal cortex can be measured indirectly by measuring their ability to inhibit the binding of radiolabelled gentamycin to BBM. Accordingly, the compounds according to this invention that have less affinity to BBM than for example polymyxin B inhibit the binding of radiolabelled gentamycin to a lesser degree than does polymyxin B.
BBM was isolated from the renal cortex of male albino rats by using the Mg^2+/EGTA precipitation technique as described by Nagai et al. (2006). The binding of gentamycin was measured, according to the method described by Nagai et al. (2006) by incubating BBM vesicles (20 μl) in 10 mM HEPES (pH 7.5) with 100 mM mannitol in the presence of 20 μM [^3H] gentamycin (Amersham Biosciences Inc., Buckinghamshire, U.K.) with or without the compound to be tested or a positive control. After an incubation of 60 min at 4° C., 1 ml of ice-cold buffer described above was added, and the mixture was filtered through a Millipore filter (0.45 μm; HAWP). The filter was washed with the buffer and the radioactivity remaining in the filter was measured by using a liquid scintillation counter. The IC50 values were determined as in Nagai et al. (2006) using the Hill equation.

[6] = Two-week intravenous toxicity study in young rats; assay type: in vivo
Description: Toxicity in young rats (weighing approx. 150 g in the beginning of the study) was determined by administering doses (1, 2, 4, 8, 16, and 32 mg/kg per day) of NAB7061 as well as the control compound polymyxin B intravenously twice (2) a day for two weeks. A group of ten (10) rats was studied for each dosis regimen. Clinical observations were made daily, the body weight measured twice weekly, and the food consumption twice weekly. In the end of week 2, all animals were sacrificed.
Histopathology of kidneys was performed for each animals and histopathology of all tissues was performed in three high-dose groups receiving NAB7061.

E. coli = conditions: Sakura et al. 2004; cited from earlier work

Compound: CC[C@H]1OC(=O)[C@H](C)[C@@H](O[C@H]2C[C@@](C)(OC)[C@@H](O)[C@H](C)O2)[C@H](C)[C@@H](O[C@@H]2O[C@H](C)C[C@H](N(C)C)[C@H]2O)[C@](C)(O)C[C@@H](C)C(=O)[C@H](C)[C@@H](O)[C@]1(C)O [erythromycin]
- CFU counts in peritoneal fluid (E. coli IH3080 (K1:O18) [1]; 4.5 h postinfection ([…] after the treatment)): 8.9 (±6.4)×10^6 per ml
- Factor of increase of the bacterial count (E. coli IH3080 (K1:O18) [1]; from 1 h to 4.5 h postinfection): 12

Compound: C[C@@H](O)[C@H]1C(=O)N2C(C(=O)O)=C(SCCN=CN)C[C@H]12 [imipenem, reference compound]
- MIC (Ac. baumannii ATCC19606; read-out: MIC of imipenem): 0.38 µg/mL
- MIC (Ac. baumannii F263; read-out: MIC of imipenem): > 32 µg/mL
- MIC (Ac. baumannii F264; read-out: MIC of imipenem): 24 µg/mL

Compound: C[C@@H](O)[C@H]1C(=O)N2C(C(=O)O)=C(S[C@@H]3CN[C@H](C(=O)N(C)C)C3)[C@H](C)[C@H]12 [meropenem, reference compound]
- MIC (Ac. baumannii ATCC19606; read-out: MIC of meropenem): 1.5 µg/mL
- MIC (Ac. baumannii F263; read-out: MIC of meropenem): > 32 µg/mL
- MIC (Ac. baumannii F264; read-out: MIC of meropenem): 32 µg/mL

Compound: MO(H)A-XTX-cy[XXFLXXT], SEQ ID NO:1; commercially available polymyxin B is a mixture [reference compound]
- Antibacterial activity (growth inhibition area around a well) (E. coli IH3080 (K1:O18) [2]; 4 μg of compound per well): 79 square millimeters
- Antibacterial activity (growth inhibition area around a well) (E. coli IH3080 (K1:O18) [2]; 10 μg of compound per well): 133 square millimeters
- Antibacterial activity (growth inhibition area around a well) ([3]; 4 μg per well): 113 square millimeters
- Antibacterial activity (growth inhibition area around a well) ([3]; 10 μg per well): 154 square millimeters
- Antibacterial activity (growth inhibition area around a well) ([4]; 4 μg per well): 95 square millimeters
- Antibacterial activity (growth inhibition area around a well) ([4]; 10 μg per well): 133 square millimeters
- Antibacterial activity in the presence of rifampin (growth inhibition area around a well) (E. coli IH3080; rifampin 0 μg/ml): 79 square millimeters
- Antibacterial activity in the presence of rifampin (growth inhibition area around a well) (E. coli IH3080; rifampin 0.1 μg/ml): 95 square millimeters
- Antibacterial activity in the presence of rifampin (growth inhibition area around a well) (E. coli IH3080; rifampin 1.0 μg/ml): 104 square millimeters
- IC50 [5]: 39.3 µM
- Rise of blood urea nitrogen (BUN) versus control or low dose group ([6]; rat, in vivo, 16 mg/kg/day): 15%
- Lowest dose that negatively influenced the body weight gain ([6]; rat, in vivo, iv): 1 mg/kg per day
- Mortality ([6]; rats, 32 mg/kg per day intravenously for two weeks): 100%

Compound: gentamycin [unlabelled gentamycin]
- IC50 [5]: 90.2 µM

Compound: octanoyl polymyxin B heptapeptide [Octanoyl PMBH, reference compound]
- Antibacterial activity (growth inhibition area around a well) (E. coli IH3080 (K1:O18) [2]; 4 μg of compound per well): 0 square millimeters
- Antibacterial activity (growth inhibition area around a well) (E. coli IH3080 (K1:O18) [2]; 10 μg of compound per well): 0 square millimeters
- Antibacterial activity in the presence of rifampin (growth inhibition area around a well) (E. coli IH3080; rifampin 0 μg/ml): 0 square millimeters
- Antibacterial activity in the presence of rifampin (growth inhibition area around a well) (E. coli IH3080; rifampin 0.1 μg/ml): 0 square millimeters
- Antibacterial activity in the presence of rifampin (growth inhibition area around a well) (E. coli IH3080; rifampin 1.0 μg/ml): 38 square millimeters
- Concentration needed to inhibit the growth of bacteria (E. coli): 128 µg/mL
